Assay results taken from US11760775B2, “Steroids and protein-conjugates thereof” (Regeneron Pharmaceuticals, Inc., priority 2016, dated 2023).
Structures can show the parent of a compound that is named as a salt. Where two headings read alike, the source gives them in different places.

Tests used:
[1] = test system: GR activation in 293/PRLR/GRE-Luc cells (HEK293/9xUAS-Luc2P/pBind-GR/PRLR-HA high cells); assay: GR co-activator luciferase reporter cell based assay in 293/PRLR/GRE-Luc cells; design: species or system human; conditions: for EC50: read-out: HEK293/9xUAS-Luc2P/pBind-GR/PRLR-HA high cells EC50; for HEK293/9xUAS-Luc2P/pBind-GR/PRLR-HA high cells activation relative to Budesonide: fold activation vs Budesonide
Excerpt: Bioassays described herein were used to assess the efficacy of free steroids and anti-PRLR-ncADCs. In one example, the bioassay assessed the activity of steroids, after internalization of a site-specific anti-PRLR-GC steroid ADC into cells, to bind to pBIND-GR and subsequent luciferase reporter activation. […] Then such stable cell line was further transfected with a chimeric receptor consisting of a GR ligand binding domain fused to the yeast Gal4 DNA binding domain (pBind-GR, Promega Cat #E1581), and a Gal4 upstream activator sequence (9×Gal4UAS-Luc2P) that drives luciferase gene expression.
(§1) For this assay, 20,000 cells were seeded in 96-well plates in media containing DMEM supplemented with 10% FBS and pencillin/streptomycin (complete media) and grown overnight at 37° C. in 5% CO2. […] Luciferase activity was determined by addition of OneGlo™ reagent (Promega, Cat #E6130) and relative light units (RLUs) were measured on a Victor luminometer (Perkin Elmer). The EC50 values were determined from a four-parameter logistic equation over a 10 point response curve using GraphPad Prism.
as §1, with “One-Glo™” for “OneGlo™”, “10-point” for “10 point”, “Prism. […] Minimal activation in this assay is defined as less than 10% of the maximal activation measured with the free payload.” for “Prism.”

[2] = target: Glucocorticoid Receptor (GR) (Homo sapiens (Human), UniProt P04150); assay: LanthaScreen TR-FRET GR Competitive Binding Assay (cell free)
human liver cathepsin B = human liver cathepsin B (Homo sapiens (Human), UniProt P07858); assay: Linker-payload cleavage in Cathepsin B assay; assay type: biochemical; conditions: Mean
Method: The linker-payloads were tested in a Cathepsin B assay. After 4 hr incubation in Cathepsin B (CapB) with and without CapB inhibitor ([…]), both linker-payloads and free payload were evaluated using LC-MS/MS.
The CapB assay procedure follows: Linker-payload stock solution (10 mM in DMSO) was spiked into incubation buffer (100 mM NaOAc, 10 mM dithiothreitol, pH5) to obtain a 50 μM substrate solution. 4 μL of 0.47 μg/μL human liver cathepsin B (Athens Research & Technology, Athens, GA) in 50 mM NaOAc, 1 mM EDTA, pH 5 was added into 196 μL of 50 μM substrate solution. The reaction mixture was incubated at 37° C. for 4 hr. Then 5 μL of acetic acid and 150 μL of acetonitrile (containing osalmid as internal standard) were added to 50/Th of reaction mixture aliquots. After vortexing, the quenched samples were frozen in a −70° C. deep freezer, followed by thawing and centrifugation at 14,000 rpm.
The CapB assay experiment included the following procedure. • 1. Preheat assay buffer: 0.1 M NaOAc/0.01 M DTT (pH 5.0) • 2. Spiking solutions for test compounds: 25 μM Spiking solutions for test compounds: Add […], of 5 mM stock solution into 398 μL of 0.1 M NaOAc/0.01 M DTT buffer (pH 5.0). • 3. Prepare 0.47m/μL Cathepsin B in 50 mM NaOAc/1 mM EDTA (pH 5.0). Put on ice. • 4. Without CA074 samples: Add […], of 0.47m/μL Cathepsin B into 196 μL of 25 μM Spiking solutions (from step 2), incubate the tubes at 37° C. • 5. With CA074 samples: Add 4 μL of 0.47m/μL Cathepsin B with 4 μL of 10 mM Inhibitor (CA074) into 196 μL of 25 μM Spiking solutions (from step 2), incubate the tubes at 37° C. • 6. After 4 hours, Aliquots of 5 μL (with CA074 and without CA074) were taken for enzyme activity test (step 15-17). Meanwhile, Aliquots of 50 μL were taken at the time point (4 h), adding 5 μL of acetic acid, and then add 150 μL of ACN (IS) to stop the reaction. • 7. After quenching, shake the plate and centrifuge them at 14000 rpm. • 8. Transfer 50 μL of the supernatant from each well into a 96-well sample plate containing 50 μL of ultra pure water (Millipore, ZMQS50F01) for LC/MS analysis.
The CapB assay experiment included the reference compounds and the following procedure. • 9. Preheat assay buffer: 100 mM Na/K phosphate, pH6.0, with 1.33 mM EDTA and 2 mM DTT. • 10. Prepare 0.024m/μL Cathepsin B: Add […] of 0.47 μg/μL Cathepsin B stock into 19 μL of assay buffer (from step 11). • 11. Add 2 μL of 0.024m/μL Cathepsin B (from step 12) to a opaque 96-well plate. • 12. Add 96 μL of assay buffer to each sample. • 13. Add 2 μL of the 10 mM substrate Z—RR-MNA(200 μM final concentration). • For negative control (with inhibitor), add 2 μL of 10 mM Inhibitor (CA074). • 14. Immediately read the samples in a kinetic mode at excitation of 340 nm/emission of 425 nm (Read the plate every 30 Second for 3 min).
Stability of Cathepsin B in incubation samples: • 15. Take Take 5 μL of incubation samples into 93 μL of assay buffer (from step 11), and then add 2 μL of 10 mM substrate (Z—RR-MNA). • 16. Incubate the samples at 37° C. for 2 min. • 17. Read the samples at excitation of 340 nm/emission of 425 nm.

[3] = with CA074 (Cathepsin B inhibitor), 4 hr incubation
[4] = without CA074, 4 hr incubation with Cathepsin B

Sequence of Glucocorticoid Receptor (GR) (P04150 524-758): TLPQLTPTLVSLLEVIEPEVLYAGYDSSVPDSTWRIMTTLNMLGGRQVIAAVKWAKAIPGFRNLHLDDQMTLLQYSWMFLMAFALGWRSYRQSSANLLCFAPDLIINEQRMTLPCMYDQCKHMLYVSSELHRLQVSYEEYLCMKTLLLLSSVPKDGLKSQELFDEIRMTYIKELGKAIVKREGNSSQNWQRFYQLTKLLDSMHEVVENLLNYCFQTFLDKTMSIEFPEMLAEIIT

Row | Compound | EC50 ([1]; Homo sapiens, HEK293) | HEK293/9xUAS-Luc2P/pBind-GR/PRLR-HA high cells activation relative to Budesonide [1] | IC50 [2] | Conversion rate (%) (human liver cathepsin B; [3]) | Conversion rate (%) (human liver cathepsin B; [4]) | further results
1 | CCCC1O[C@@H]2C[C@H]3[C@@H]4CCC5=CC(=O)C=C[C@]5(C)[C@@]4(F)[C@@H](O)C[C@]3(C)[C@]2(C(=O)CN)O1 (stereo partly drawn) [Compound 4h, (1S,2S,4R,8S,9S,11S,12R,13S)-8-(2-Aminoacetyl)-12-fluoro-11-hydroxy-9,13-dimethyl-6-propyl-5,7-dioxapentacyclo[10.8.0.0^2,9.0^4,8.0^13,18]icosa-14,17-dien-16-one] | < 10 nM | Full | 10 to 50 nM | – | – | –
2 | [2H]c1c([2H])c(OCC(=O)[C@@]23OC(CCC)O[C@@H]2C[C@H]2[C@@H]4C[C@H](F)C5=CC(=O)C=C[C@]5(C)[C@@]4(F)[C@@H](O)C[C@@]23C)c([2H])c([2H])c1N (stereo partly drawn) [Compound 6-ID, (1S,2S,4R,8S,9S,11S,12R,13S,19S)-8-{2-[4-Amino(2,3,5,6-^2H4)phenoxy]acetyl}-12,19-difluoro-11-hydroxy-9,13-dimethyl-6-propyl-5,7-dioxapentacyclo[10.8.0.0^2,9.0^4,8.0^13,18]icosa-14,17-dien-16-one] | < 10 nM | Full | < 10 nM | – | – | –
3 | CCCC1O[C@@H]2C[C@H]3[C@@H]4C[C@H](F)C5=CC(=O)C=C[C@]5(C)[C@@]4(F)[C@@H](O)C[C@]3(C)[C@]2(C(=O)COc2ccc(N)c(OC)c2)O1 (stereo partly drawn) [Compound 6-II, (1S,2S,4R,8S,9S,11S,12R,13S,19S)-8-[2-(4-Amino-3-methoxyphenoxy)acetyl]-12,19-difluoro-11-hydroxy-9,13-dimethyl-6-propyl-5,7-dioxapentacyclo[10.8.0.0^2,90.0^4,80.0^13,18]icosa-14,17-dien-16-one trifluoroacetate] | < 10 nM | Full | < 10 nM | – | – | –
4 | CCC(=O)O[C@]1(C(=O)CNC)[C@@H](C)C[C@H]2[C@@H]3C[C@H](F)C4=CC(=O)C=C[C@]4(C)[C@@]3(F)[C@@H](O)C[C@@]21C [Compound 14-2, (1R,2S,8S,10S,11S,13S,14R,15S,17S)-1,8-difluoro-17-hydroxy-2,13,15-trimethyl-14-[2-(methylamino)acetyl]-5-oxotetracyclo[8.7.0.0^2,70.0^11,15]heptadeca-3,6-dien-14-yl propanoate] | – | – | < 10 nM | – | – | Emax ([1]; Homo sapiens, HEK293, read-out: Activation (fold activation relative to Budesonide) in HEK293/9xUAS-Luc2P/pBind-GR/PRLR-HA high cells, 72 hours of incubation): < 20%; EC50 ([1]; Homo sapiens, HEK293, 72 hours of incubation): > 100 nM
5 | C[C@@H]1C[C@H]2[C@@H]3C[C@H](F)C4=CC(=O)C=C[C@]4(C)[C@@]3(F)[C@@H](O)C[C@]2(C)[C@@]1(O)C(=O)COc1ccc(N)cc1 [Compound 15-5, (1R,2S,8S,10S,11S,13R,14R,155,17S)-14-[2-(4-Aminophenoxy)acetyl]-1,8-difluoro-14,17-dihydroxy-2,13,15-trimethyltetracyclo[8.7.0.0^2,70.0^11,15]heptadeca-3,6-dien-5 one] | – | – | 10 to 100 nM | – | – | Activation (fold activation relative to Budesonide) in HEK293/9xUAS-Luc2P/pBind-GR/PRLR-HA high cells ([1]; 72 hours of incubation): Full activation (Full activation: >75% of fold activation induced by Budesonide); EC50 ([1]; 72 hours of incubation): 10 to 100 nM
6 | CCC[C@@H]1O[C@@H]2C[C@H]3[C@@H]4C[C@H](F)C5=CC(=O)C=C[C@]5(C)[C@@]4(F)[C@@H](O)C[C@]3(C)[C@]2(C(=O)COc2ccc(N)cc2)O1 [Compound R-6-I] | < 10 nM | Full | < 10 nM | – | – | –
7 | CCC[C@H]1O[C@@H]2C[C@H]3[C@@H]4C[C@H](F)C5=CC(=O)C=C[C@]5(C)[C@@]4(F)[C@@H](O)C[C@]3(C)[C@]2(C(=O)COc2ccc(N)cc2)O1 [Compound S-6-I, (1S,2S,4R,6S,8S,9S,11S,12R,13S,19S)-8-[2-(4-Aminophenoxy)acetyl]-12,19-difluoro-11-hydroxy-9,13-dimethyl-6-propyl-5,7-dioxapentacyclo[10.8.0.0^2,90.0^4,80.0^13,18]icosa-14,17-dien-16-one] | < 10 nM | Full | < 10 nM | – | – | –
8 | CCCC1O[C@@H]2C[C@H]3[C@@H]4C[C@H](F)C5=CC(=O)C=C[C@]5(C)[C@@]4(F)[C@@H](O)C[C@]3(C)[C@]2(C(=O)CNC(=O)OCc2ccc(NC(=O)[C@H](CCCNC(N)=O)NC(=O)[C@@H](NC(=O)[C@@H](N)CCCCNC(=O)COC3C#CCCCCC3)C(C)C)cc2)O1 (stereo partly drawn) [LP101] | – | – | – | <1.00% | 48.20% | –
9 | CCCC1O[C@@H]2C[C@H]3[C@@H]4C[C@H](F)C5=CC(=O)C=C[C@]5(C)[C@@]4(F)[C@@H](O)C[C@]3(C)[C@]2(C(=O)COc2ccc(NC(=O)[C@H](C)NC(=O)[C@@H](NC(=O)[C@@H](N)CCCCNC(=O)COC3C#CCCCCC3)C(C)C)cc2)O1 (stereo partly drawn) [LP102] | – | – | – | <1.00% | 22.72% | –
10 | CCCC1O[C@@H]2C[C@H]3[C@@H]4C[C@H](F)C5=CC(=O)C=C[C@]5(C)[C@@]4(F)[C@@H](O)C[C@]3(C)[C@]2(C(=O)COc2ccc(NC(=O)OCc3ccc(NC(=O)[C@H](CCCNC(N)=O)NC(=O)[C@@H](NC(=O)[C@@H](N)CCCCNC(=O)COC4C#CCCCCC4)C(C)C)cc3)cc2)O1 (stereo partly drawn) [LP103] | – | – | – | <1.00% | 29.0% | –
